This note sets out measurements from patent US8748426B2, “Inhibitors of diacylglycerol acyl transferase” (Piramal Enterprises Limited, priority 2009, dated 2014).

The structures appear in SMILES notation.

Broadly, the inhibition is the percentage by which the read-out fell short of the control.

One assay concerns the target T1, hDGAT1 (Homo sapiens, UniProt O75907).
T1 sequence (O75907 1-488): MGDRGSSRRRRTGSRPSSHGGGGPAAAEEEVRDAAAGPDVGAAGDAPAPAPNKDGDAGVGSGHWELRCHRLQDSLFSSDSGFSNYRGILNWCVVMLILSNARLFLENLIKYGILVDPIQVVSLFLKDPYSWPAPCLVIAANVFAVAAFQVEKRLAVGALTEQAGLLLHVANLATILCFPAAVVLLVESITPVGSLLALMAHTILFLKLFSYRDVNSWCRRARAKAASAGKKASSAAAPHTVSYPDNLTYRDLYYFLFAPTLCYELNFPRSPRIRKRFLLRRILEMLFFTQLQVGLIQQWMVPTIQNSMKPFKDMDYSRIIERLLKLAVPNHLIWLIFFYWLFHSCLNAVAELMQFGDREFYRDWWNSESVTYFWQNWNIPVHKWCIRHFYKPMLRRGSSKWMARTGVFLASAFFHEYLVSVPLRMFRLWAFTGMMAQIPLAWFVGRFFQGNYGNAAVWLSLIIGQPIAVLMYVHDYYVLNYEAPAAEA
The experiment in a line: In-vitro DGAT1 assay (14C oleoyl CoA, hDGAT1 microsomes from Sf9 cells). The note with it: at 1 μM.
Regarding `CC(C)[C@@H](C(=O)O)N1Cc2ccc(-c3ccc(NC(=O)c4ccc(-c5ccccc5)cc4)c(F)c3)cc2C1=O` [Example 448, (S)-2-(6-(4-Biphenyl-4-ylcarboxamido-3-fluorophenyl)-1-oxoisoindolin-2-yl)-3-methylbutanoic acid], the “% Inhibition of hDGAT1” value is “++ (>50% Inhibition)”. Still for that read-out and setting: as for `O=C(Nc1ccc(-c2ccc3c(c2)C(=O)N(C24C[C@@H]5C[C@@H](CC(C(=O)O)(C5)C2)C4)C3)cc1)c1ccc(Cl)cc1` [Example 569, (1r,3s,5R,7S)-3-(6-(4-(4-Chlorobenzamido)phenyl)-1-oxoisoindolin-2-yl)adamantane-1-carboxylic acid], the entry is “+ (10-50% Inhibition)”; as for `CC(C)[C@@H](C(=O)O)N1Cc2ccc(-c3ccc(NC(=S)Nc4ccccc4C(F)(F)F)cc3)cc2C1=O` [Example 66], “++ (>50% Inhibition)”. The same measure, in the same setting: the same measure for `CC(C)[C@@H](C(=O)O)N1Cc2ccc(-c3ccc(NC(=O)c4ccc(-c5ccccc5)cc4)cc3C(F)(F)F)cc2C1=O` [Example 426, (S)-2-(6-(4-Biphenyl-4-ylcarboxamido-2-(trifluoromethyl)phenyl)-1-oxoisoindolin-2-yl)-3-methylbutanoic acid]: “+ (10-50% Inhibition)”.

Staying with this assay, now noted: read-out: % Inhibition of hDGAT1.
`CC(C)[C@@H](C(=O)O)N1Cc2ccc(-c3ccc(NC(=O)c4ccc(OC(F)(F)F)cc4)cc3F)cc2C1=O` [Example 608, (S)-2-(6-(2-Fluoro-4-(4-(trifluoromethoxy)benzamido)phenyl)-1-oxoisoindolin-2-yl)-3-methylbutanoic acid]: the inhibition at 1 µM was greater than 50%.

For `CC(C)[C@@H](C(=O)O)N1Cc2ccc(-c3ccc(NC(=O)c4c(F)cccc4F)cc3)cc2C1=O` [Example 138, (S)-2-(6-(4-(2,6-Difluorobenzamido)phenyl)-1-oxoisoindolin-2-yl)-3-methyl butanoic acid], the inhibition at 1 µM fell in the range of 10 to 50%. On the same count and under the same terms, the same measure for `COc1cccc(NC(=S)Nc2ccc(-c3ccc4c(c3)CN([C@H](C(=O)O)C(C)C)C4=O)cc2)c1` [Example 263, (S)-2-(5-(4-(3-(3-Methoxyphenyl)thioureido)phenyl)-1-oxoisoindolin-2-yl)-3-methyl butanoic acid]: 10 to 50%. The same measure, in the same setting: the same measure for `COc1ccc(NC(=S)Nc2ccc(-c3ccc4c(c3)C(=O)N([C@H](C(=O)O)C(C)C)C4)cc2)cc1` [Example 58, (S)-2-(6-(4-(3-(4-Methoxyphenyl)thioureido)phenyl)-1-oxoisoindolin-2-yl)-3-methylbutanoic acid]: greater than 50%; for `CC(C)[C@H](C(=O)O)N1Cc2ccc(-c3ccc(NC(=O)Nc4cccc(C(F)(F)F)c4)cc3)cc2C1=O` [Example 331, (R)-3-Methyl-2-(1-oxo-6-(4-(3-(3-(trifluoromethyl)phenyl)ureido)phenyl)isoindolin-2-yl)butanoic acid]: greater than 50%.

On to `CC(C)[C@@H](C(=O)O)N1Cc2ccc(-c3ccc(NC(=O)c4ccc(F)cc4C(F)(F)F)cc3)cc2C1=O` [Example 198, (S)-2-(6-(4-(4-Fluoro-2-(trifluoromethyl)benzamido)phenyl)-1-oxoisoindolin-2-yl)-3-methylbutanoic acid], for which the inhibition at 1 µM fell in the range of 10 to 50%. The same measure, in the same setting: the same measure for `CC(C)(C(=O)O)N1Cc2ccc(-c3ccc(NC(=O)Nc4cccc(C(F)(F)F)c4)cc3)cc2C1=O` [Example 340, 2-Methyl-2-(1-oxo-6-(4-(3-(3-(trifluoromethyl)phenyl)ureido)phenyl)isoindolin-2-yl)propanoic acid]: 10 to 50%.

Consider `C[C@@H](C(=O)O)N1Cc2ccc(-c3ccc(NC(=O)Nc4cccc(C(F)(F)F)c4)cc3)cc2C1=O` [Example 337, (S)-2-(1-Oxo-6-(4-(3-(3-(trifluoromethyl)phenyl)ureido)phenyl)isoindolin-2-yl)propanoic acid], for which the inhibition at 1 µM is greater than 50%. With `CC(C)[C@@H](C(=O)O)N1Cc2ccc(-c3ccc(NC(=O)c4nc(-c5ccccc5)oc4C(F)(F)F)cn3)cc2C1=O` [Example 657, (S)-3-Methyl-2-(1-oxo-6-(5-(2-phenyl-5-(trifluoromethyl)oxazole-4-carboxamido)pyridin-2-yl)isoindolin-2-yl)butanoic acid], the inhibition at 1 µM is greater than 50%.

Regarding `CC(C)[C@@H](C(=O)O)N1Cc2ccc(-c3ccc(NC(=O)c4ccc(C(C)(C)C)cc4)cc3C(F)(F)F)cc2C1=O` [Example 424, (S)-2-(6-(4-(4-tert-Butylbenzamido)-2-(trifluoromethyl)phenyl)-1-oxoisoindolin-2-yl)-3-methylbutanoic acid], the inhibition at 1 µM fell in the range of 10 to 50%.

Take `O=C(Nc1ccc(-c2ccc3c(c2)C(=O)N(C2CCCC(C(=O)O)C2)C3)cc1)c1ccc(Cl)cc1` (stereo not drawn) [Example 549, 3-(6-(4-(4-Chlorobenzamido)phenyl)-1-oxoisoindolin-2-yl)cyclohexane carboxylic acid]: the inhibition at 1 µM was greater than 50%. Still for that read-out and setting: as for `CC(C)[C@@H](C(=O)O)N1Cc2cc(-c3ccc(NC(=O)Nc4ccccc4)cc3)ccc2C1=O` [Example 231, (S)-3-Methyl-2-(1-oxo-5-(4-(3-phenylureido)phenyl)isoindolin-2-yl)butanoic acid], the figure is 10 to 50%. On the same count and under the same terms, the same measure for `CC(C)[C@@H](C(=O)O)N1Cc2ccc(-c3ccc(NC(=O)c4ccc(N5CCOCC5)nc4)cc3)cc2C1=O` [Example 213, (S)-3-Methyl-2-(6-(4-(6-morpholinonicotinamido)phenyl)-1-oxoisoindolin-2-yl)butanoic acid]: 10 to 50%; for `CC(C)[C@@H](C(=O)O)N1Cc2ccc(-c3ccc(NC(=O)c4cc(-c5ccc(Cl)cc5)no4)cc3)cc2C1=O` [Example 618, (S)-2-(6-(4-(3-(4-Chlorophenyl)isoxazole-5-carboxamido)phenyl)-1-oxoisoindolin-2-yl)-3-methylbutanoic acid]: greater than 50%; for `O=C(Nc1ccc(-c2ccc3c(c2)C(=O)N(C2(C(=O)O)CCCC2)C3)cc1)c1ccc(OC(F)(F)F)cc1` [Example 535, 1-(1-Oxo-6-(4-(4-(trifluoromethoxy)benzamido)phenyl)isoindolin-2-yl)cyclopentane carboxylic acid]: greater than 50%. On the same count and under the same terms, as for `CC(C)[C@@H](C(=O)O)N1Cc2ccc(-c3ccc(NC(=O)c4ccc(F)cc4)cc3)cc2C1=O` [Example 100, (S)-2-(6-(4-(4-Fluorobenzamido)phenyl)-1-oxoisoindolin-2-yl)-3-methylbutanoic acid], the figure is greater than 50%; as for `CC(C)[C@@H](C(=O)O)N1Cc2ccc(-c3ccc(NC(=O)Nc4ccccc4Cl)cc3C(F)(F)F)cc2C1=O` [Example 416, (S)-2-(6-(4-(3-(2-Chlorophenyl)ureido)-2-(trifluoromethyl)phenyl)-1-oxoisoindolin-2-yl)-3-methylbutanoic acid], 10 to 50%. As for `CCCCCc1ccc(C(=O)Nc2ccc(-c3ccc4c(c3)C(=O)N([C@H](C(=O)O)C(C)C)C4)nn2)cc1` [Example 500, (S)-3-Methyl-2-(1-oxo-6-(6-(4-pentylbenzamido)pyridazin-3-yl)isoindolin-2-yl)butanoic acid], the inhibition at 1 µM was greater than 50%. Still for that read-out and setting: as for `O=C(O)CN1Cc2ccc(-c3ccc(NC(=O)Nc4cccc(C(F)(F)F)c4)cc3)cc2C1=O` [Example 334, 2-(1-Oxo-6-(4-(3-(3-(trifluoromethyl)phenyl)ureido)phenyl)isoindolin-2-yl)acetic acid], the figure is 10 to 50%.

Turning to `CC(C)[C@@H](C(=O)O)N1Cc2ccc(-c3ccc(NC(=O)c4ccc(C(C)(C)C#N)cc4)cc3)cc2C1=O` [Example 631, (S)-2-(6-(4-(4-(2-Cyanopropan-2-yl)benzamido)phenyl)-1-oxoisoindolin-2-yl)-3-methylbutanoic acid], the inhibition at 1 µM is greater than 50%.

Turning to `COc1cccc(NC(=O)Nc2ccc(-c3ccc4c(c3)CN([C@H](C(=O)O)C(C)C)C4=O)cc2)c1` [Example 251, (S)-2-(5-(4-(3-(3-Methoxyphenyl)ureido)phenyl)-1-oxoisoindolin-2-yl)-3-methylbutanoic acid], the inhibition at 1 µM is greater than 50%. The same measure, in the same setting: the same measure for `CCCCCc1ccc(C(=O)Nc2ccc(-c3ccc4c(c3)C(=O)N(C3(C(=O)O)CCCC3)C4)cc2)cc1` [Example 537, 1-(1-Oxo-6-(4-(4-pentylbenzamido)phenyl)isoindolin-2-yl)cyclopentane carboxylic acid]: greater than 50%. The same measure, in the same setting: the same measure for `CC(C)[C@@H](C(=O)O)N1Cc2ccc(-c3ccc(NS(=O)(=O)c4ccc(F)cc4F)cc3)cc2C1=O` [Example 84, (S)-2-(6-(4-(2,4-Difluorophenylsulfonamido)phenyl)-1-oxoisoindolin-2-yl)-3-methylbutanoic acid]: 10 to 50%. Same read-out and setting: the same measure for `CC(C)[C@@H](C(=O)O)N1Cc2ccc(-c3ccc(NC(=O)c4ncc(-c5ccccc5)o4)cn3)cc2C1=O` [Example 635, (S)-3-Methyl-2-(1-oxo-6-(5-(5-phenyloxazole-2-carboxamido)pyridin-2-yl)isoindolin-2-yl)butanoic acid]: greater than 50%; for `CC(C)[C@@H](C(=O)O)N1Cc2ccc(-c3ccc(NC(=O)Nc4ccc(C(F)(F)F)cc4)cc3)cc2C1=O` [Example 36, (S)-3-Methyl-2-(1-oxo-6-(4-(3-(4-(trifluoromethyl)phenyl)ureido)phenyl)isoindolin-2-yl)butanoic acid]: greater than 50%; for `O=C(Nc1ccc(-c2ccc3c(c2)CN([C@H](C(=O)O)c2ccccc2)C3=O)cc1)Nc1cccc(C(F)(F)F)c1` [Example 373, (S)-2-(1-Oxo-5-(4-(3-(3-(trifluoromethyl)phenyl)ureido)phenyl)isoindolin-2-yl)-2-phenylacetic acid]: 10 to 50%.
